Data on 25 molecules can be found in ChEMBL document CHEMBL2176963, “Design, synthesis, and biological evaluation of 3-(1H-1,2,3-triazol-1-yl)benzamide derivatives as Potent Pan Bcr-Abl inhibitors including the threonine(315)→isoleucine(315) mutant” (J Med Chem, 2012).

The term IC50 denotes the concentration at which inhibition is half-maximal. Higher therefore signals a need for much substance.

Assay [1] is described as follows: Antiproliferative activity against mouse BA/F3 cells after 72 hrs by CCK-8 assay. The note with it: BaF3, 72 h. In general terms: Tetrazolium dyes change colour on reduction, which living cells bring about.
Assay [2] is described as follows: Antiproliferative activity against mouse BA/F3 cells expressing Bcr-Abl G250E mutant after 72 hrs by CCK-8 assay. Conditions: BaF3, 72 h.
The nature of assay [3]: Antiproliferative activity against mouse BA/F3 cells expressing Bcr-Abl Y253F mutant after 72 hrs by CCK-8 assay. Conditions: BaF3, 72 h.
A short description of assay [4]: Antiproliferative activity against mouse BA/F3 cells expressing Bcr-Abl H396R mutant after 72 hrs by CCK-8 assay. The note with it: BaF3, 72 h.
The nature of assay [5]: Antiproliferative activity against mouse BA/F3 cells expressing Bcr-Abl F359V mutant after 72 hrs by CCK-8 assay. Conditions: BaF3, 72 h.
Assay [6] is described as follows: Antiproliferative activity against mouse BA/F3 cells expressing Bcr-Abl E255V mutant after 72 hrs by CCK-8 assay. Conditions: BaF3, 72 h.
A short description of assay [7]: Antiproliferative activity against mouse BA/F3 cells expressing Bcr-Abl E255K mutant after 72 hrs by CCK-8 assay. Conditions: BaF3, 72 h.
Assay [8] can be described thus: Antiproliferative activity against mouse BA/F3 cells expressing Bcr-Abl H396P mutant after 72 hrs by CCK-8 assay. Conditions: BaF3, 72 h.
Assay [9] is described as follows: Antiproliferative activity against mouse BA/F3 cells expressing Bcr-Abl M244V mutant after 72 hrs by CCK-8 assay. The note with it: BaF3, 72 h.
The nature of assay [10]: Antiproliferative activity against mouse BA/F3 cells expressing Bcr-Abl E355G mutant after 72 hrs by CCK-8 assay. Conditions: BaF3, 72 h.
The nature of assay [11]: Antiproliferative activity against mouse BA/F3 cells expressing Bcr-Abl Y253H mutant after 72 hrs by CCK-8 assay. Conditions: BaF3, 72 h.
Assay [12] can be described thus: Antiproliferative activity against mouse BA/F3 cells expressing Bcr-Abl Q252H mutant after 72 hrs by CCK-8 assay. The note with it: BaF3, 72 h.
A short description of assay [13]: Antiproliferative activity against mouse BA/F3 cells expressing Bcr-Abl F486S mutant after 72 hrs by CCK-8 assay. Conditions: BaF3, 72 h.
Assay [14] in a line: Antiproliferative activity against mouse BA/F3 cells expressing Bcr-Abl M351T mutant after 72 hrs by CCK-8 assay. Conditions: BaF3, 72 h.
A short description of assay [15]: Antiproliferative activity against mouse BA/F3 cells expressing wild type Bcr-Abl after 72 hrs by CCK-8 assay. Conditions: BaF3, 72 h.
Another assay in a line: cells. Conditions: Mus musculus, BaF3, 72 h.
The test system of assay [16] is K562. Nature of the assay: Antiproliferative activity against human K562 cells expressing wild type Bcr-Abl after 72 hrs by CCK-8 assay. Conditions: K562, 72 h.
The test system of assay [17] is K562. Nature of the assay: Antiproliferative activity against imatinib-resistant human K562 cells expressing Bcr-Abl Q252H mutant after 72 hrs by CCK-8 assay. Conditions: K562, 72 h.
Assay [18] is described as follows: Antiproliferative activity against human KU812 cells expressing wild type Bcr-Abl after 72 hrs by CCK-8 assay. The note with it: KU812, 72 h.

Molecules are shown by their SMILES.

With `Cc1ccc(NC(=O)c2ccc(CN3CCN(C)CC3)cc2)cc1Nc1nccc(-c2cccnc2)n1` [IMATINIB], the IC50 stood at 18500 nM in [1]; 1860 nM in assay [2]; 1440 nM in [3]; 2380 nM in assay [4]; 960 nM in assay [5]; 8620 nM in assay [6]. The IC50 in [7] amounted to 2950 nM; in [8], 110 nM; in assay [9], 129 nM; in [10] it was 362 nM; in assay [11], 17100 nM; in [12] it was 3760 nM. In addition, the IC50 in assay [13] is 2550 nM; in assay [14], 424 nM; in [15], 1830 nM; in “cells”, 3000 nM.

As for `Cc1nc(Nc2ncc(C(=O)Nc3c(C)cccc3Cl)s2)cc(N2CCN(CCO)CC2)n1` [DASATINIB], the IC50 is 6590 nM in assay [1]; 0.51 nM in assay [2]; 0.58 nM in assay [3]; 1.72 nM in assay [4]; 1.94 nM in [5]; 1.91 nM in assay [6]. Besides, the IC50 in [7] came out at 5.72 nM; in [8], 0.31 nM; in assay [9], 0.12 nM; in [10] it was 0.58 nM; in assay [11], 1.29 nM; in assay [12], 6.55 nM. Further, the IC50 came out at 1.71 nM in [13], 0.83 nM in [14], 4.5 nM in [15] and 1710 nM in the assay “cells”.

For `Cc1ccc(C(=O)Nc2ccc(CN3CCN(C)CC3)c(C(F)(F)F)c2)cc1-n1cc(-c2cnc(N3CCCCC3)nc2)nn1`, the IC50 turned out to be 1240 nM in assay [15]; 798 nM with K562 [16]; 893 nM in the assay on K562 [17]; 158 nM in [18]; 3590 nM in the assay “cells”.

On to `Cc1ccc(C(=O)Nc2ccc(CN3CCN(C)CC3)c(C(F)(F)F)c2)cc1-n1cc(-c2cnc(N)nc2)nn1`, for which the IC50 in assay [15] was 3.35 nM; with K562 [16] it was 0.85 nM; in the assay with K562 [17], 17.1 nM; in [18] it was 0.2 nM; in the assay “cells” it was 494 nM.

For the molecule `Cc1ccc(C(=O)Nc2ccc(CN3CCOCC3)c(C(F)(F)F)c2)cc1-n1cc(-c2cnc3[nH]ncc3c2)nn1`, the IC50 amounted to 4.46 nM in assay [15]; 3.41 nM in the assay with K562 [16]; 41.1 nM with K562 [17]; 0.46 nM in assay [18]; 1560 nM in “cells”.

As to `Cc1ccc(C(=O)Nc2ccc(CN3CCN(C)CC3)c(C(F)(F)F)c2)cc1-n1cc(-c2cnc(NC3CCCCC3)nc2)nn1`, the IC50 in assay [15] is 28.3 nM; in the assay on K562 [16], 7.04 nM; with K562 [17], 72.8 nM; in assay [18], 1.57 nM; in “cells”, 3630 nM.

As to `Cc1ccc(C(=O)Nc2ccc(CN3CCN(C)CC3)c(C(F)(F)F)c2)cc1-n1cc(-c2cnn3cccnc23)nn1`, the IC50 worked out at 7.31 nM in [15]; 2.45 nM in the assay on K562 [16]; 17.1 nM in the assay with K562 [17]; 1.51 nM in [18]; 1440 nM in the assay “cells”.

For `Cc1ccc(C(=O)Nc2ccc(CN3CC[C@@H](N(C)C)C3)c(C(F)(F)F)c2)cc1-n1cc(-c2cnc3[nH]ncc3c2)nn1`, the IC50 in [15] amounted to 3.43 nM; with K562 [16], 0.31 nM; in the assay with K562 [17], 3.15 nM; in assay [18], 0.24 nM; in the assay “cells” it was 544 nM.

For the molecule `Cc1ccc(C(=O)Nc2ccc(CN3CCC(N4CCN(C)CC4)CC3)c(C(F)(F)F)c2)cc1-n1cc(-c2cnc3[nH]ncc3c2)nn1`, the IC50 came to 23.8 nM in [15]; 1.25 nM in the assay with K562 [16]; 4.32 nM in the assay with K562 [17]; 1.48 nM in assay [18]; 873 nM in the assay “cells”.

As to `Cc1ccc(C(=O)Nc2ccc(CN3CCCC3)c(C(F)(F)F)c2)cc1-n1cc(-c2cnc3[nH]ncc3c2)nn1`, the IC50 in assay [15] came out at 2.47 nM; in the assay with K562 [16], 0.66 nM; with K562 [17], 12.1 nM; in assay [18] it was 0.19 nM; in “cells” it was 939 nM.

Regarding `CCNc1ncc(-c2cn(-c3cc(C(=O)Nc4ccc(CN5CCN(C)CC5)c(C(F)(F)F)c4)ccc3C)nn2)cn1`, the IC50 amounted to 3.04 nM in assay [15]; 1.26 nM in the assay with K562 [16]; 20.2 nM in the assay with K562 [17]; 0.2 nM in assay [18]; 405 nM in “cells”.

With `Cc1ccc(Nc2ncc3c(n2)N(C)C(=O)N(c2cc(NC(=O)c4cccc(C(F)(F)F)c4)ccc2C)C3)cn1`, the half-maximal inhibitory concentration (IC50) in assay [15] was found to be 3.15 nM; in the assay on K562 [16], 0.44 nM; in the assay with K562 [17] it was 2.6 nM; in assay [18] it was 0.08 nM; in the assay “cells” it was 6.18 nM.

For the molecule `Cc1ccc(C(=O)Nc2cc(-n3cncn3)cc(C(F)(F)F)c2)cc1-n1cc(-c2cnc3[nH]ncc3c2)nn1`, the IC50 in [15] was determined as 4.54 nM; with K562 [16] it was 3.5 nM; in the assay with K562 [17], 21.9 nM; in assay [18], 0.46 nM; in the assay “cells”, 652 nM.

For the molecule `Cc1ccc(C(=O)Nc2ccc(CN3CCCN(C)CC3)c(C(F)(F)F)c2)cc1-n1cc(-c2cnc3[nH]ncc3c2)nn1`, the concentration for half-maximal inhibition (IC50) in assay [15] was 4.02 nM; in the assay with K562 [16] it was 0.8 nM; in the assay on K562 [17] it was 8.45 nM; in assay [18], 0.38 nM; in the assay “cells”, 294 nM.

`Cc1ncn(-c2cc(NC(=O)c3ccc(C)c(-n4cc(-c5cnc6[nH]ncc6c5)nn4)c3)cc(C(F)(F)F)c2)n1`: the IC50 amounted to 3.68 nM in assay [15]; 2.9 nM with K562 [16]; 34.2 nM with K562 [17]; 0.4 nM in assay [18]; 620 nM in the assay “cells”.

`Cc1ccc(C(=O)Nc2ccc(CN3CCN(C)CC3)c(C(F)(F)F)c2)cc1-n1cc(-c2cnc(NCc3ccccc3)nc2)nn1`: the IC50 worked out at 28.2 nM in assay [15]; 8.82 nM in the assay on K562 [16]; 181 nM in the assay on K562 [17]; 1.89 nM in assay [18]; 3500 nM in “cells”.

Take `Cc1ccc(C(=O)Nc2ccc(CN3CCN(C)CC3)c(C(F)(F)F)c2)cc1-n1cc(-c2cnc(NC3CC3)nc2)nn1`: the IC50 in assay [15] came out at 3.01 nM; in the assay with K562 [16], 1.24 nM; with K562 [17], 19.2 nM; in assay [18], 0.22 nM; in “cells”, 579 nM.

On to `Cc1ccc(C(=O)Nc2ccc(CN3CC[C@H](N(C)C)C3)c(C(F)(F)F)c2)cc1-n1cc(-c2cnc3[nH]ncc3c2)nn1`, for which the IC50 was 3.01 nM in [15]; 0.32 nM with K562 [16]; 2.24 nM in the assay on K562 [17]; 0.68 nM in [18]; 91.7 nM in “cells”.

Take `CN1CCN(Cc2ccc(NC(=O)c3cccc(-n4cc(-c5cnc6[nH]ncc6c5)nn4)c3)cc2C(F)(F)F)CC1`: the IC50 in assay [15] turned out to be 3.98 nM; in the assay on K562 [16], 0.67 nM; in the assay with K562 [17] it was 10.8 nM; in [18] it was 1.34 nM; in the assay “cells”, 728 nM.

For `Cc1ccc(C(=O)Nc2ccc(CN3CCCCC3)c(C(F)(F)F)c2)cc1-n1cc(-c2cnc3[nH]ncc3c2)nn1`, the IC50 in assay [15] was determined as 5.39 nM; in the assay with K562 [16], 3.22 nM; in the assay on K562 [17], 31.1 nM; in assay [18], 0.47 nM; in the assay “cells” it was 3510 nM.

Consider `Cc1ccc(C(=O)Nc2ccc(CN3CCN(C)CC3)c(C(F)(F)F)c2)cc1-n1cc(-c2cnc3ncccn23)nn1`, for which the IC50 came out at 47.9 nM in assay [15]; 3.87 nM in the assay with K562 [16]; 16.2 nM with K562 [17]; 11.1 nM in [18]; 8840 nM in “cells”.

As to `CN1CCN(Cc2ccc(NC(=O)c3ccc(F)c(-n4cc(-c5cnc6[nH]ncc6c5)nn4)c3)cc2C(F)(F)F)CC1`, the IC50 in assay [15] is 3.9 nM; in the assay on K562 [16], 0.24 nM; in the assay on K562 [17], 2.28 nM; in assay [18], 0.1 nM; in the assay “cells”, 130 nM.

With `CC(C)c1ccc(C(=O)Nc2ccc(CN3CCN(C)CC3)c(C(F)(F)F)c2)cc1-n1cc(-c2cnc3[nH]ncc3c2)nn1`, the IC50 in [15] amounted to 420 nM; with K562 [16], 74 nM; with K562 [17] it was 219 nM; in assay [18], 14.2 nM; in “cells”, 2060 nM.

Take `Cc1ccc(C(=O)Nc2ccc(CN3CCN(C)CC3)c(C(F)(F)F)c2)cc1-n1cc(-c2cnc3cccnn23)nn1`: the IC50 is 27.4 nM in assay [15]; 35.8 nM in the assay on K562 [16]; 1.41 nM in the assay with K562 [17]; 14.6 nM in assay [18]; more than 10000 nM in the assay “cells”.

Turning to `Cc1cn(-c2cc(NC(=O)c3ccc(C)c(-n4cc(-c5cnc6[nH]ncc6c5)nn4)c3)cc(C(F)(F)F)c2)cn1`, the IC50 in assay [15] came to 4.72 nM; in the assay on K562 [16], 3.37 nM; in the assay with K562 [17] it was 25.7 nM; in [18], 0.73 nM; in “cells”, 656 nM.
